Results from patent publication US6410564B1, “Naphthyl compounds, intermediates, processes, compositions, and methods” (Eli Lilly and Company, priority 1994, dated 2002).
Read-outs that look alike come from different tables or passages of the source.

How the values were obtained:
[1] = tested on: Uterine Eosinophil Peroxidase (EPO); settings: female, Sprague Dawley, rat, in vivo, po, 4 days
Source text: (§1) Seventy-five day old female Sprague Dawley rats (weight range of 200 to 225 g) were obtained from Charles River Laboratories (Portage, Mich.). The animals were either bilaterally ovariectomized (OVX) or exposed to a Sham surgical procedure at Charles River Laboratories, and then shipped after one week. Upon arrival, they were housed in metal hanging cages in groups of 3 or 4 per cage and had ad libitum access to food (calcium content approximately 0.5%) and water for one week. Room temperature was maintained at 22.2°±1.7° C. with a minimum relative humidity of 40%. The photoperiod in the room was 12 hours light and 12 hours dark.
(§2) Dosing Regimen Tissue Collection. After a one week acclimation period (therefore, two weeks post-OVX) daily dosing with test compound was initiated. 17α-ethynyl estradiol or the test compound were given orally, unless otherwise stated, as a suspension in 1% carboxymethylcellulose or dissolved in 20% cyclodextrin. Animals were dosed daily for 4 days. Following the dosing regimen, animals were weighed and anesthetized with a ketamine: Xylazie (2:1, V:V) mixture and a blood sample was collected by cardiac puncture. The animals were then sacrificed by asphyxiation with CO2, the uterus was removed through a midline incision, and a wet uterine weight was determined.
Uterine Eosinophil Peroxidase (EPO) Assay. Uteri were kept at 4° C. until time of enzymatic analysis. The uteri were then homogenized in 50 volumes of 50 mM Tris Buffer (pH −8.0) containing 0.005% Triton X-100. Upon addition of 0.01% hydrogen peroxide and 10 mM O-phenylenediamine (final concentrations) in Tris buffer, increase in absorbance was monitored for one minute at 450 nm. The presence of eosonophils in the uterus is an indication of estrogenic activity of a compound. The maximal velocity of a 15 second interval was determined over the initial, linear portion of the reaction curve.
As is expressed in the below data, estrogenicity also was assessed by evaluating the adverse response to eosinophil infiltration into the uterus.
(§3) The data presented in the Tables 1 below reflects the response of 5 to 6 rats per treatment.

[2] = tested on: ovariectomized (OVX) female Sprague Dawley rats; settings: rat, in vivo, po, 4 days
Protocol: In the examples illustrating the methods, a post-menopausal model was used in which effects of different treatments upon circulating lipids were determined.
as §1, §2
(§4) Data presented in Table 1 below show comparative results among ovariectomized rats, rats treated with 17α-ethynyl estradiol (EE2; an orally available form of estrogen), and rats treated with certain compounds of the present invention. […] This uterine response to estrogen is well recognized in the art.
as §3

[3] = tested on: ovariectomized (OVX) female Sprague Dawley rats; experiment: Serum cholesterol in OVX rats, 4-day dosing; type: in vivo, rat; settings: Rattus norvegicus, po, 96 h, oral daily for 4 days, read-out: Serum Cholesterol (% decrease vs. OVX)
Source text: as §1, §2
Cholesterol Analysis. Blood samples were allowed to clot at room temperature for 2 hours, and serum was obtained following centrifugation for 10 minutes at 3000 rpm. Serum cholesterol was determined using a Boehringer Mannheim Diagnostics high performance cholesterol assay. Briefly the cholesterol was oxidized to cholest-4-en-3-one and hydrogen peroxide. The hydrogen peroxide was then reacted with phenol and 4-aminophenazone in the pressure of peroxidase to produce a p-quinone imine dye, which was read spectrophotemetrically at 500 nm. Cholesterol concentration was then calculated against a standard curve. The entire assay was automated using a Biomek Automated Workstation.
as §4, §3

| SMILES | Uterine EPO (V. max) ([1]; 0.1 mg/kg) | Uterine EPO (V. max) ([1]; 1 mg/kg) | Uterine EPO (V. max) ([1]; 10 mg/kg) | Uterine Weight (% increase vs. OVX) ([2]; 0.1 mg/kg) [%] | Uterine Weight (% increase vs. OVX) ([2]; 1 mg/kg) [%] | Uterine Weight (% increase vs. OVX) ([2]; 10 mg/kg) [%] | inhibition in vivo at 0.1 mg/kg [3] [%] | inhibition in vivo at 1 mg/kg [3] [%] | inhibition in vivo at 10 mg/kg [3] [%] | Uterine EPO (V. max) ([1]; 0.01 mg/kg) | Uterine Weight (% increase vs. OVX) ([2]; 0.01 mg/kg) [%] | inhibition in vivo at 0.01 mg/kg ([3]; dose 0.01 mg/kg) [%] |
| --- | --- | --- | --- | --- | --- | --- | --- | --- | --- | --- | --- | --- |
| CC(C)(C)C(=O)Oc1ccc(-c2ccc3cc(OC(=O)C(C)(C)C)ccc3c2Cc2ccc(OCCN3CCCCC3)cc2)cc1 [Example 4, [2-(4-Pivaloyloxyphenyl)-6-pivaloyloxynaphthalen-1-yl][4-[2-(1-piperidinyl)ethoxy]phenyl]methane] | 3.6 | 2.9 | 3.4 | 52.1 | 22.8 | 75.2 | 21.2 | 37.2 | 20.8 | – | – | – |
| CCCCS(=O)(=O)Oc1ccc(-c2ccc3cc(OS(=O)(=O)CCCC)ccc3c2Cc2ccc(OCCN3CCCCC3)cc2)cc1 [Example 5, [2-(4-n-Butylsulfonyloxyphenyl)-6-n-butylsulfonyloxynaphthalen-1-yl][4-[2-(1-piperidinyl)ethoxy]phenyl]methane] | 3.4 | 4.3 | 2.6 | 43.2 | 16.0 | 25.3 | 6 | 62 | 46.2 | – | – | – |
| Oc1ccc2c(Cc3ccc(OCCN4CCCCC4)cc3)c(-c3ccccc3)ccc2c1 [Example 11, [2-Phenyl-6-hydroxynaphthalen-1-yl][4-[2-(1-piperdinyl)ethoxy]phenyl]methane] | 4.8 | 3.9 | 3.9 | 48.1 | 47.4 | 14.4 | 60.2 | 73.5 | 72.4 | – | – | – |
| Oc1ccc2c(Cc3ccc(OCCN4CCCC4)cc3)c(-c3ccccc3)ccc2c1 [Example 12] | 12.0 | 4.8 | 4.5 | 26.3 | 18.6 | 25.1 | 46.3 | 49.9 | 50.1 | – | – | – |
| COc1ccc(-c2ccc3ccccc3c2Cc2ccc(OCCN3CCCCC3)cc2)cc1.Cl [Example 15, [2-(4-Methoxyphenyl)-naphthalen-1-yl][4-[2-(1-piperdinyl)ethoxy]phenyl]methane hydrochloride] | 7.0 | 5.2 | 5.5 | 41.6 | 21.2 | 53.7 | 53.4 | 66 | 55.4 | 4.6 | 29.3 | 12.4 |
| Oc1ccc(-c2ccc3cc(O)ccc3c2Cc2ccc(OCCN3CCCC3)cc2)cc1 [Example 19] | 0.9 | 5.4 | 4.5 | −12.4 | 1.0 | 7.1 | 4.5 | 19.7 | 40.9 | – | – | – |
| CCN(CC)CCOc1ccc(Cc2c(-c3ccc(OC)cc3)ccc3cc(OC)ccc23)cc1.Cl [Example 22, [2-(4-Methoxyphenyl)-6-methoxynaphthalen-1-yl][4-[2-(1-N,N-diethylamino)ethoxy]phenyl]methane hydrochloride] | 45.0 | 41.1 | 46.2 | 83.9 | 87.5 | 89.3 | 72 | 60.5 | 68.7 | – | – | – |
| COc1ccc(-c2ccc3cc(OC)ccc3c2Cc2ccc(OCCN3CCCCCC3)cc2)cc1.Cl [Example 26, [2-(4-Methoxyphenyl)-6-methoxynaphthalen-1-yl][4-[2-(1-hexamethyleneiminyl)ethoxy]phenyl]methane hydrochloride] | – | – | – | – | – | – | 45.1 | 55.5 | 60.6 | – | – | – |
| Oc1ccc(-c2ccc3cc(O)ccc3c2Cc2ccc(OCCN3CCOCC3)cc2)cc1 [Example 32] | 9.3 | 39.3 | 34.8 | 50.5 | 55.4 | 69.7 | 57.9 | 60.3 | 65.7 | – | – | – |
| CC1(C)CCN(CCOc2ccc(Cc3c(-c4ccc(O)cc4)ccc4cc(O)ccc34)cc2)C1 [Example 33, [2-(4-Hydroxyphenyl)-6-hydroxynaphthalen-1-yl][4-[2-(1-(3,3-dimethyl)pyrrolidinyl)ethoxy]phenyl]methane] | 12.9 | 55.2 | 73.5 | 40.8 | 79.0 | 63.0 | 25.2 | 41.1 | 52.8 | – | – | – |
